Values quoted from earlier work in patent US20240044899A1, “BIOMARKERS FOR FIMEPINOSTAT THERAPY” (Curis, Inc, priority 2021, published 2024).

Test system: MYC-altered DLBCL/HGBL patients
Details: Prospective phase 2; DHL; sample size 16; cited from earlier work

Q: With Tisagenlecleucel as the substance, how does the CRR read?
A: The CRR was 25%.

Q: And the ORR?
A: Its ORR is 50%/.
